For this series the following is noted: PAMPA; for logPe: 16 h. On the technique in general: PAMPA measures passive passage across an artificial lipid membrane.

Numbered stars: 1 amine (or outer) side, 2 acyl side, 3 side chain; on linkers, the order of the positions; unused ones are H or OH. Bridge positions count the residues as written; N and C are the ends. Square brackets hold non-standard residues; d marks the D form. Peptide text beside a SMILES is read from it. * marks the point of attachment. dLeu(3R-OH) = CC(C)[C@@H](O[*:3])[C@@H](N[*:1])C(=O)[*:2]; Gln(3S,4R-Me2) = C[C@H]([C@H](N)C(=O)O)[C@@H](C)C(N)=O; dTyr(βR-OMe) = CO[C@H](c1ccc(O)cc1)[C@@H](N)C(=O)O; Pip(4S-Cl) = O=C(O)[C@@H]1C[C@@H](Cl)CCN1; X6 = CCC(C)/C=C(C)/C=C\C(O)C(C)(O)C(=O)*; Abu(3R-NH2) = C[C@@H](N)[C@H](N)C(=O)O; NMeT = CN[C@H](C(=O)O)[C@@H](C)O

The compound `CC(C)[C@H]1C(=O)O[C@H](C(C)C)C(=O)N(C)[C@@H](C(C)C)C(=O)O[C@H](C(C)C)C(=O)N(C)[C@@H](C(C)C)C(=O)O[C@H](C(C)C)C(=O)N1C` [Enniatin B] displayed a logPe of −4.7.
Still for that read-out and setting: the figure for `CC[C@H](C)[C@@H]1NC(=O)c2csc(n2)[C@@H](C)NC(=O)[C@H]2N=C(O[C@@H]2C)[C@H](C(C)C)NC(=O)c2csc(n2)[C@@H](Cc2ccccc2)NC(=O)[C@H]2N=C1O[C@@H]2C` [Patellamide C] is −4.7.
For `CCC(C)/C=C(C)/C=C\C(O)C(C)(O)C(=O)NCC(=O)N[C@H](C(=O)N[C@H](C(=O)N[C@H](C(=O)N[C@H]1C(=O)N[C@H](COC)C(=O)NCC(=O)N[C@@H](C)C(=O)N(C)[C@@H]([C@@H](C)O)C(=O)N[C@H]([C@H](OC)c2ccc(O)cc2)C(=O)N2CC[C@H](Cl)C[C@H]2C(=O)O[C@@H]1C(C)C)[C@@H](C)[C@@H](C)C(N)=O)[C@@H](C)N)[C@@H](C)O` (stereo partly drawn) [mirabamide C] (X6-GT[Abu(3R-NH2)][Gln(3S,4R-Me2)][dLeu(3R-OH)][dS](Me)GA[NMeT][dTyr(βR-OMe)][Pip(4S-Cl)]; ester 5-C), the “passive permeability (in words)” value is “poor passive permeability”.
Take `CC(C)[C@H]1C(=O)N(C)[C@@H](C)C(=O)NCCC[C@H](NC(=O)/C=C/C=C/C=O)C(=O)N1C` [sclerotiotide F]: the logPe result is on record as “below the PAMPA assay’s detection limit”.
In the case of `CC[C@@H](C)[C@@H]1NC(=O)CNC(=O)[C@@H](C)N(C)C(=O)[C@H](C(C)C)NC(=O)[C@H]([C@@H](C)O)N(C)C(=O)[C@H](C(C)C)NC(=O)[C@H]([C@@H](C)O)N(C)C(=O)[C@H](C(C)C)NC(=O)CNC(=O)[C@@H](Cc2ccccc2)N(C)C(=O)[C@H](C(C)C)NC(=O)[C@H](CO)NC(=O)[C@H](C(C)C)N(C)C(=O)[C@H](CO)N(C)C1=O` [verrucamide B], the “passive permeability (in words)” value is given as “poor passive permeability”.
desmethyldestruxin B gave a logPe of −6.67.
For the compound destruxin A, the “passive permeability (in words)” value is given as “moderate permeability”.
For destruxin B, the “passive permeability (in words)” value is on record as “moderate permeability” and the logPe is recorded as −5.29.
destruxin E2 chlorohydrin came in with a logPe of −7.35.
tentoxin: the “passive permeability (in words)” value is “measurable permeability”.

These data come from PMC5186412 (Future medicinal chemistry, 2015).
